Reference: ChEMBL document CHEMBL5579891, “A Glycyrrhizin Derivative with a More Potent Inhibitory Activity against High-Mobility Group Box 1 Efficiently Discovered by Chemical Synthesis Inspired by the Bioconversion Products of an Endophytic Fungus Isolated from Licorice” (J Med Chem, 2024)
Activity calls are given as the source filed them. The calls are words filed in the database; no cut-off is given here.

Tests used:
[1] = system: Peritoneal macrophage; assay: Suppression of HMGB1-induced IL-1beta mRNA expression in male ddY mouse Peritoneal macrophage cells at 10 uM incubated for 2 hrs by qRT-PCR analysis; assay type: functional, cell-based
[2] = system: RAW264.7; assay: Cytotoxicity against mouse RAW264.7 cells at 100 uM measured after 2 hrs by LDH assay; assay type: toxicity, cell-based; conditions: raw264.7, 2 h
[3] = system: RAW264.7; assay: Cytotoxicity against mouse RAW264.7 cells at 30 to 100 uM measured after 2 hrs by LDH assay; assay type: toxicity, cell-based; conditions: raw264.7, 2 h, dose 30-100 µM
[4] = system: Peritoneal macrophage; assay: Suppression of HMGB1-induced IL-1beta mRNA expression in male ddY mouse Peritoneal macrophage cells at 10 nM incubated for 2 hrs in presence of RU486 by qRT-PCR analysis; assay type: functional, cell-based
[5] = system: Mus musculus; assay: Neuroprotective activity in male ddY mouse model of collagenase induced intracerebral hemorrhage assessed as rescue of ICH-induced neuronal loss by measuring increase in NeuN-positive neurons in periphery of […] at 100 mg/kg, po pretreated with collagenase for 20 mins followed by compound administration via oral gavage and measured at 24 hrs by immunohistochemical staining based analysis; assay type: functional, organism-based
[6] = system: Mus musculus; assay: Effect on hematoma size in male ddY mouse model of collagenase induced intracerebral hemorrhage at 100 mg/kg, po pretreated with collagenase for 20 mins followed by compound administration via oral gavage and measured at 24 hrs; assay type: functional, organism-based
[7] = system: Mus musculus; assay: Effect on brain water content in contralateral hemisphere in male ddY mouse model of collagenase induced intracerebral hemorrhage at 100 mg/kg, po pretreated with collagenase for 20 mins followed by compound administration via oral gavage and measured at 24 hrs; assay type: functional, organism-based
[8] = system: Mus musculus; assay: In vivo inhibition of HMGB1 in male ddY mouse model of collagenase induced intracerebral hemorrhage assessed as reduction in brain water content in ipsilateral hemisphere at 100 mg/kg, po pretreated with collagenase for 20 mins followed by compound administration via oral gavage and measured at 24 hrs; assay type: functional, organism-based
[9] = system: Mus musculus; assay: In vivo inhibition of HMGB1 in male ddY mouse model of collagenase induced intracerebral hemorrhage assessed as reduction in AQP4 protein level at 100 mg/kg, po pretreated with collagenase for 20 mins followed by compound administration via oral gavage and measured at 24 hrs by Western blot analysis; assay type: functional, organism-based
[10] = Solubility of compound at >10 uM; assay type: physicochemical
[11] = system: Mus musculus; assay: Suppression of IL-1beta mRNA expression in po dosed male ddY mouse model of collagenase induced intracerebral hemorrhage pretreated with collagenase for 20 mins followed by compound administration via oral gavage and measured at 24 hrs by qRT-PCR analysis; assay type: functional, organism-based; conditions: dose 50-100 mg/kg
[12] = system: Mus musculus; assay: Effect on brain water content in cerebellum in male ddY mouse model of collagenase induced intracerebral hemorrhage at 100 mg/kg, po pretreated with collagenase for 20 mins followed by compound administration via oral gavage and measured at 24 hrs; assay type: functional, organism-based
[13] = system: Peritoneal macrophage; assay: Suppression of HMGB1-induced IL-1beta mRNA expression in male ddY mouse Peritoneal macrophage cells at 10 uM incubated for 2 hrs in presence of RU486 by qRT-PCR analysis; assay type: functional, cell-based
[14] = Drug uptake in brain of male ddY mouse model of collagenase induced intracerebral hemorrhage assessed as appearance of unchanged form of drug by measuring retention time at 100 mg/kg, po pretreated with collagenase for 20 mins followed by compound administration via oral gavage and measured at 24 hrs by LC-MS analysis; assay type: ADME, organism-based; conditions: in vivo

CC1(C)C(=O)CC[C@]2(C)[C@H]3C(=O)C=C4[C@@H]5C[C@@](C)(C(=O)O)CC[C@]5(C)C[C@H](O)[C@@]4(C)[C@]3(C)CC[C@@H]12
Activity [1]: inactive
Activity [2]: Toxic

CC1(C)[C@@H](O)CC[C@]2(C)[C@H]3C(=O)C=C4[C@@H]5C[C@@](C)(C(=O)O)CC[C@]5(C)CC[C@@]4(C)[C@]3(C)CC[C@@H]12 [ENOXOLONE]
Activity [3]: Toxic

C[C@]12CCC(=O)C=C1CC[C@@H]1[C@@H]2[C@@H](O)C[C@@]2(C)[C@H]1CC[C@]2(O)C(=O)CO
Activity [4]: inactive

CC1(C)C(=O)CC[C@]2(C)[C@H]3C(=O)C=C4[C@@H]5C[C@@](C)(C(=O)O)CC[C@]5(C)CC[C@@]4(C)[C@]3(C)CC[C@@H]12
Activity [2]: Toxic

COC(=O)[C@@]1(C)CC[C@]2(C)CC[C@]3(C)C(=CC(=O)[C@@H]4[C@@]5(C)CCC(=O)C(C)(C)[C@@H]5CC[C@]43C)[C@@H]2C1
Activity [5]: Active
Activity [6]: inactive
Activity [1]: Active
Activity [7]: inactive
inhibition [8]: Active
inhibition [9]: Active
solubility [10]: Insoluble
Activity [11]: Dose-Dependent Effect
Activity [12]: inactive
Activity [13]: Active
Retention_time [14]: 11.3 min

CC1(C)[C@@H](O[C@H]2O[C@H](C(=O)O)[C@@H](O)[C@H](O)[C@H]2O[C@@H]2O[C@H](C(=O)O)[C@@H](O)[C@H](O)[C@H]2O)CC[C@]2(C)[C@H]3C(=O)C=C4[C@@H]5C[C@@](C)(C(=O)O)CC[C@]5(C)CC[C@@]4(C)[C@]3(C)CC[C@@H]12
Activity [1]: Active

CC1(C)[C@@H](O)CC[C@]2(C)[C@H]3C(=O)C=C4[C@@H]5C[C@@](C)(C(=O)O)CC[C@]5(C)C[C@H](O)[C@@]4(C)[C@]3(C)CC[C@@H]12
Activity [1]: inactive
